# Laboratory results as given in patent US9145375B2, “Quinazolinone compounds” (PRANA BIOTECHNOLOGY LIMITED, priority 2008, dated 2015).
# Like-named read-outs stand apart in the source and are kept apart here.
# Tests used:
# PK Studies in the Rat = type: in vivo; conditions: for Cmax / Tmax / half-life / AUC(0-t): plasma; for AUC(0-t): read-out: AUC0-24 h (converted)
# Experimental: Assay 5. Pharmacokinetic Profile
# The pharmacokinetic profile of test compounds is determined by the following assay: • Intravenous infusion of test compound; 2 mg/Kg in a suitable vehicle is […]; […] up to 24 hours. • Plasma concentrations of test compound are determined by suitable analytical method.
# [formula] [formula] [formula] • CLtotal=total plasma clearance after IV administration • Vdβ=volume of distribution during the elimination phase after IV administration • BA=oral bioavailability • AUCIV=area under the plasma concentration versus time profile from time zero to infinity after IV administration • AUCoral=area under the plasma concentration versus time profile from time zero to infinity after oral administration • β=terminal elimination rate constant after IV administration Assay 6. Blood Brain Barrier Penetration
# [1] = In Vitro Metabolism in Human Liver Microsomes (predicted EH); type: in vitro ADME
# Experimental: [formula] [formula] [formula] [formula] • Cbrain=concentration of compound in brain parenchyma (ng/g) • Cbrain homogenate=concentration of compound in brain homogenate (ng/g) • Cbrain vasculature=concentration of compound in brain vasculature (ng/g) • CPlasma=concentration of compound in plasma (ng/mL) • VP=brain plasma volume (26 μL/g for male Swiss Outbred mice) • B:P=brain-to-plasma ratio • Papp=apparent permeability coefficient of compound permeating the blood-brain barrier • ∫0^tcplasmadt=concentration of compound in plasma from time zero to 5 min post-dose (equivalent to the 5 min post-dose plasma concentration, assuming no back diffusion from brain to plasma within this time period) • A=surface area of capillaries forming the blood-brain barrier (240 cm^2/g brain weight for mouse) Assay 7 In Vitro Metabolism in Human Liver Microsomes
# The solubility of test compounds and their recovery from the incubation media were confirmed prior to the metabolic assay. Metabolic stability was performed by incubating test compounds individually (1 μM) at 37° C. with human liver microsomes. The metabolic reaction was initiated by the addition of a NADPH-regenerating system (i.e. NADPH is the cofactor required for CYP450-mediated metabolism) and quenched at various time points over the incubation period by the addition of acetonitrile. Additional samples with dual co-factors, i.e. NADPH and UDPGA (the co-factor for glucuronidation), were also included in the incubation for the qualitative assessment of the potential for glucuronide formation. The relative loss of parent compound and formation of metabolic products was monitored by LC/MS using a Waters/Micromass LCT mass spectrometer.
# Test compound concentration versus time data were fitted to an exponential decay function to determine the first-order rate constant for substrate depletion. In cases where clear deviation from first-order kinetics was evident, only the initial linear portion of the profile was utilised to determine the degradation rate constant (k). Each substrate depletion rate constant was then used to calculate: [1] degradation half-life, [2] an in vitro intrinsic clearance value (CLint,in vitro); [3] a predicted in vivo intrinsic clearance value (CLint); and [4] a predicted in vivo hepatic extraction ratio (EH).
# [formula] • The following scaling parameters were assumed for estimating metabolic stability parameters:
# Predictions of In Vivo Hepatic Clearance and Hepatic Extraction Ratios:
# The microsome-predicted hepatic extraction ratios (EH) obtained based on the relative rate of degradation of the test compound in vitro, lead to test compounds being classified as low (<0.3), intermediate (0.3-0.7), high (0.7-0.95) or very high (>0.95) extraction compounds. The assumptions underlying this classification are stated below.
# The use of hepatic microsomes in the prediction of the in vivo hepatic clearance and extraction ratio is based on a number of assumptions (Obach, 1999; Drug Metab. Dispos. 27: 1350-1359):
# 1) Hepatic (microsomal) metabolic clearance is the major clearance mechanism for compounds in vivo;
# 2) NADPH-dependent oxidative metabolism predominates over other metabolic routes (i.e. direct conjugative metabolism, reduction, hydrolysis, etc.); and,
# 3) Rates of metabolism and enzyme activities in vitro are truly reflective of those that exist in vivo.
# Calculations of intrinsic clearance are based on the “in vitro […] method” (Obach, 1999), which has two further inherent assumptions:
# 1) The substrate concentration employed is well below the apparent KM for substrate turnover; and,
# 2) There is no significant product inhibition, nor is there any mechanism based inactivation of enzyme.
# Data should be considered within these terms of reference.
# [2] = Metabolism in hepatocytes (predicted EH), human; type: in vitro ADME
# [3] = Metabolism in hepatocytes (predicted EH), dog; type: in vitro ADME
# CYP1A2 = biological target: T1, CYP1A2 (Homo sapiens, UniProt P05177); assay: CYP450 inhibition, specific substrate approach in human liver microsomes: CYP1A2; type: in vitro ADME
# T1 construct: using a specific substrate approach in human liver microsomes; from tissue; host or cells: human liver microsomes
# T1 sequence (P05177 1-516): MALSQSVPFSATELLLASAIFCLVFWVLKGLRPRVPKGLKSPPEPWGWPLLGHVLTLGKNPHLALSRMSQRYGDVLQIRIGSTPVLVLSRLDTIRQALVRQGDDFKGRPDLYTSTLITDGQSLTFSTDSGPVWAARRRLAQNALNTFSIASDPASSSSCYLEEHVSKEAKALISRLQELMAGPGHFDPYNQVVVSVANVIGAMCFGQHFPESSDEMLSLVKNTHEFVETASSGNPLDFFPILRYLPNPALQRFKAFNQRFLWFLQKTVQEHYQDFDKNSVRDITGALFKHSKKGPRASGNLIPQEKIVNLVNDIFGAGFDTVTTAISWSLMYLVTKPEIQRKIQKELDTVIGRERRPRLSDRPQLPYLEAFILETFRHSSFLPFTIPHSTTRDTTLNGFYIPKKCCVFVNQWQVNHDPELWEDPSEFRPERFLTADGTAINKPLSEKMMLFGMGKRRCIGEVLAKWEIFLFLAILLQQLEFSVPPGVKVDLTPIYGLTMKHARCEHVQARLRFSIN
# Experimental: CYP450 Isoform Inhibition Using a Specific Substrate Approach
# The present study is a “Tier 2” screen to assess potential enzyme inhibition at a test compound concentration of 20 μM using a specific substrate approach in human liver microsomes.
# The substrate specific enzyme inhibition study relies on the formation of a metabolite that is mediated by a specific CYP450 isoform using human liver microsomes. In the current study, the following reactions were monitored to assess interactions with specific CYP450 isoforms. A known inhibitor of each isoform was included in each assay as a positive control. The following IC50 values have been reported in the literature using equivalent assay conditions for each CYP450 isoform:
# The reaction was initiated by the addition of an NADPH-regenerating system and was quenched by the addition of acetonitrile prior to determining the concentration (and apparent rate of formation) of the specific metabolite by LC/MS.
# The IC50 was deemed to be the concentration at which there was a 50% reduction in the amount of metabolite formed, relative to the maximal extent of formation.
"Metabolism (Predicted EH), Microsomes: Human [1]","Metabolism (Predicted EH), Hepatocytes: Human [2]","Metabolism (Predicted EH), Hepatocytes: Dog [3]",IC50 (CYP1A2),% dose in urine (PK Studies in the Rat; oral 20 mg/Kg),l24 (PK Studies in the Rat; oral 20 mg/Kg),Cmax (PK Studies in the Rat; oral 20 mg/Kg),Tmax (PK Studies in the Rat; oral 20 mg/Kg),half-life (PK Studies in the Rat; oral 20 mg/Kg),AUC(0-t) (PK Studies in the Rat; oral 20 mg/Kg),SMILES,further results
Human <0.2,0.28,Dog = 0.49,~20 µM,–,–,–,–,–,–,CCn1c(CN(C)C)nc2c(O)c(Cl)cc(Cl)c2c1=O.Cl [Compound F4268],% dose in urine (PK Studies in the Rat; oral 30 mg/Kg): 0.1% dose; Rel. Exposure (PK Studies in the Rat; oral 30 mg/Kg): 51.9%; l24 (PK Studies in the Rat; oral 30 mg/Kg): l24 = 0.02-0.05 uM; Cmax (PK Studies in the Rat; oral 30 mg/Kg): 10 µM; Tmax (PK Studies in the Rat; oral 30 mg/Kg): 0.333 h; half-life (PK Studies in the Rat; oral 30 mg/Kg): 4.3 h
Human <0.31,0.44,Dog = 0.39,15.3 µM,–,–,–,–,–,–,CN(C)Cc1nc2c(O)c(Cl)cc(Cl)c2c(=O)n1CC1CC1 [Compound F4267],l24 (PK Studies in the Rat; oral 30 mg/Kg): l24 = 0.25-0.5 uM; half-life (PK Studies in the Rat; oral 30 mg/Kg): 4.9 h
Human <0.2,0.22,Dog = 0.56,13.7 µM,0.18% dose,l24 = 0.05-0.3 uM,56.7 µM,0.5 h,4.1 h,87 µM·h,CCNCc1nc2c(O)c(Cl)cc(Cl)c2c(=O)n1CC [Compound F4495],–
Human <0.2,0.20,Dog = 0.56,–,–,–,–,–,–,–,CNCc1nc2c(O)c(Cl)cc(Cl)c2c(=O)n1C [Compound F4161],Cmax (PK Studies in the Rat; route and dose not given): 6.7 µM; Tmax (PK Studies in the Rat; route and dose not given): 0.25 h; half-life (PK Studies in the Rat; route and dose not given): 6.7 h; AUC(0-t) (PK Studies in the Rat; route and dose not given): 14.1 µM·h; % dose in urine (PK Studies in the Rat; route and dose not given): urine = 0.1%; l24 (PK Studies in the Rat; route and dose not given): l24 = 0.045-0.15 μM
Human <0.2,0.38,Dog = 0.54,24.1 µM,0.1% dose,l24 = 0.01-0.03 uM,3.3 µM,0.375 h,5.6 h,5.5 µM·h,"CN(C)Cc1nc2c(O)c(Cl)cc(Cl)c2c(=O)n1C [Compound F4269, 5,7-Dichloro-2-(dimethylamino)methyl-8-hydroxy-3-methylquinazolin-4(3H)-one]",–
0.75,–,–,–,–,–,–,–,–,–,C#CCN(C)Cc1nc2c(O)c(Cl)cc(Cl)c2c(=O)n1CC1CC1 [Compound F4387],–
Human <0.2,0.43,Dog = 0.66,22 µM,0.19% dose,l24= 0.02-0.1 uM,7.61 µM,0.75 h,6.1 h,17.8 µM·h,Br.CCNCc1nc2c(O)c(Cl)cc(Cl)c2c(=O)n1C [Compound F4496],–

SMILES,"Metabolism (Predicted EH), Microsomes: Human [1]","Metabolism (Predicted EH), Hepatocytes: Human [2]","Metabolism (Predicted EH), Hepatocytes: Dog [3]",IC50 (CYP1A2),% dose in urine (PK Studies in the Rat; oral 20 mg/Kg),l24 (PK Studies in the Rat; oral 20 mg/Kg),Cmax (PK Studies in the Rat; oral 20 mg/Kg),Tmax (PK Studies in the Rat; oral 20 mg/Kg),half-life (PK Studies in the Rat; oral 20 mg/Kg),AUC(0-t) (PK Studies in the Rat; oral 20 mg/Kg),further results
CCN(CC)Cc1nc2c(O)c(Cl)cc(Cl)c2c(=O)n1CC1CC1 [Compound F4385],Human <0.2,0.55,Dog = 0.37,13.4 µM,0.05% dose,l24 = 0.5-1.5 u uM,7.3 µM,0.5 h,14.7 h,52.1 µM·h,–
